Test results from patent US20230086833A1, “DEFIBROTIDE TREATMENT FOR THE PREVENTION OF ORGAN REJECTION AND INJURY” (Jazz Pharmaceuticals Ireland Limited, priority 2020, published 2023).

System: autologous dog kidney transplant model for IRI
Experiment: Autologous dog kidney transplant model for ischaemia reperfusion injury (IRI)
Assay type: in vivo
Method: An autologous dog kidney transplant model for IRI was developed (FIG. 1). The right kidney was removed from a dog at day 0 of the study and was exposed to cold ischemia for 32 hours. After exposure to cold ischemia, the right kidney developed IRI. Subsequently, in an autotransplant, the right kidney was implanted, and the left kidney was removed. Defibrotide was administered to the dog prior to transplant and after transplant four times per day for 7 days at doses of 3 mg/kg, 10 mg/kg, or 25 mg/kg. Clinical endpoints were evaluated, including bleeding at the anastomosis site, coagulation, renal function labs, serum creatinine, blood urea nitrogen (BUN), histopathology at sacrifice, and the measurement of biomarkers, including endothelin-1, Kim-1, ICAM-1, E-selectin, t-PA, PAI-1, Thrombomodulin, IL-6, TNF-α, MCP-1, and A2M.
The gross dog kidney morphology was evaluated at the termination of the study.
The creatinine level, a marker of renal function, was measured pre-transplant and post-transplant after treatment with saline control, 3 mg/kg, 10 mg/kg, or 25 mg/kg of defibrotide. […] Each curve represents a different dog.

## defibrotide
After higher doses of defibrotide, saline control
  severity of hemorrhage after IRI (FIG. 2, dose response): the severity of hemorrhage lessened
After six days of defibrotide, 3, 10 or 25 mg/kg, post-transplant
  creatinine levels (marker of renal function, FIG. 3): decreased to levels just above normal
Higher doses of defibrotide (3, 10 or 25 mg/kg, four times per day for 7 days), kidney exposed to cold ischemia for 32 hours
  hemorrhage, gross dog kidney morphology at the termination of the study: Minimal hemorrhage
Higher doses of defibrotide, after transplant
  renal function post IRI: improved renal function
